For the experiment, the system named is H. pylori. The experiment is described as follows: in vitro inhibition of H. pylori suspension (OD450 after 48 hours). The experiment is classed as cell-based. The note with it: Helicobacter pylori, read-out: minimum inhibitory concentration. On the procedure: FIGS. 7 and 8 show the results of the in vitro application of the drug carrier according to some embodiments of this invention. In the in vitro experiment, a suspension of H. pylori was obtained and respectively added with amoxicillin (with a minimum inhibitory concentration of about 0.5 μg/ml and the concentration was fixed at 0.5 μg/ml), samples 1, 5, A and E above. Next, the suspensions of H. pylori, after the addition of amoxicillin and the above samples, were further cultured for 48 hours, the OD450 of the suspension each was measured to determine the effect of inhibiting H. pylori. […] Through this test, it can be clearly seen that both the carrier structure and the drug carrier of the disclosure have the ability to inhibit H. pylori, especially the drug carrier with appropriate active substances has an obvious effect.

Values after ≈ are worked out from the molar mass of the structure shown.

`CC1(C)S[C@@H]2[C@H](NC(=O)[C@H](N)c3ccc(O)cc3)C(=O)N2[C@H]1C(=O)O` [amoxicillin]: the MIC was approximately 0.5 µg/mL (≈ 1.37 µM).

(Values after patent publication US20200179286A1, “CARRIER STRUCTURE AND DRUG CARRIER, AND PREPARING METHODS THEREOF” (GENE'E TECH CO., LTD., priority 2018, published 2020).)
